Assay results: patent publication US8021672B2, “Development of a Chlamydia sp. vaccine strain” (priority 2006, dated 2011)

Key:
McCoy cells = assay: Iodine staining of Chlamydia-infected cells for glycogen accumulation; format: cell-based; settings: Nigg-infected McCoy monolayers, 62.5 μg ml^−1
Excerpt: Iodine staining of Chlamydia-infected cells. McCoy cells cultured on glass cover slips were infected as described above. At the desired point in the infection the culture medium was removed and the monolayer rinsed several times with 1×HBSS before being fixed and stained with iodine (Schachter J & Dawson, 1978) in order to detect the presence of accumulated glycogen. Stained cells were immediately photographed using a digital camera system and SPOT version 4.0.6 software from Diagnostic Instruments Inc. (Sterling Heights, Mich.).
Plasmid-deficient C. muridarum fail to accumulate glycogen within inclusions.

plasmid = settings: 20 μg ml^−1 in conjunction with imipramine; cited from earlier work
uninfected McCoy cells = assay: Cytotoxicity of novobiocin for uninfected host cells; format: cell-based
Description: (§1) Cell culture media and reagents were purchased from Mediatech (Hearndon, Va.). Wells containing confluent monolayers of McCoy cells were infected at an approximate MOI of 0.5-1, before being centrifuged for 1 hour at 37° C. The infective inoculum was then removed and replaced with 1× Dulbecco's modified Eagle's medium (DMEM) supplemented with 10% heat-inactivated FBS, gentamicin (20 μg ml^−1) and 0.1 μg ml^−1 cycloheximide. We have previously determined that concentrations in excess of 250 μg ml^−1 are cytotoxic for uninfected McCoy cells. Novobiocin (Sigma, St. Louis, Mo.) was added at the indicated concentrations (up to 250 μg ml^−1) at 4 hours post infection. Infected cells were incubated at 37° C., 5% CO2 for a further 36 hours. Infected cells were harvested into SPG buffer (218 mM sucrose, 3.8 mM KH2PO4, 7.2 mM K2HPO4, 4.9 mM L-glutamate, pH 7.2) at 40 hours post infection, sonicated, and stored at −80° C. Bacteria were subsequently titrated by plaque assay or as inclusion forming units (IFU) using a genus-specific fluorescently tagged monoclonal antibody (Biorad, Hercules, Calif.).

C. muridarum strain Nigg = assay: Effect of novobiocin treatment on replication of Chlamydiae (titration by plaque assay); format: cell-based; settings: novobiocin 62.5 μg ml^−1 added 4 hours post infection
Excerpt: FIG. 1. Effect of novobiocin treatment on replication of C. muridarum strain Nigg. The novobiocin-treated Chlamydiae were harvested and plated by centrifugation to generate individual plaques for titration. The relative infectious yield of strain Nigg at each novobiocin concentration was derived by normalizing the total infectious yield per treated population against the yield from the untreated control. The graph is drawn from a single representative experiment with each point assayed in duplicate.
as §1, with “Infected cells were harvested into SPG buffer (218 mM sucrose, 3.8 mM KH2PO4, 7.2 mM K2HPO4, 4.9 mM L-glutamate, pH 7.2) at 40 hours post infection, sonicated, and stored at −80° C. Bacteria were subsequently titrated by plaque assay or as inclusion forming units (IFU) using a genus-specific fluorescently tagged monoclonal antibody (Biorad, Hercules, Calif.).” left out
Effect of novobiocin treatment on replication of Chlamydiae. […] The titers of novobiocin-treated bacteria were measured by plaque assays (FIG. 1). […]

Which “iodine staining of inclusions under novobiocin treatment” value (McCoy cells) does the source give for CO[C@@H]1[C@@H](OC(N)=O)[C@@H](O)[C@H](Oc2ccc3c(O)c(NC(=O)c4ccc(O)c(CC=C(C)C)c4)c(=O)oc3c2C)OC1(C)C [novobiocin] here?
Its value is “variable iodine staining of inclusions”.

And the “effect on plasmid copy number” value (plasmid)?
Its value is “plasmid copy number increases”.

And the “concentrations cytotoxic for uninfected McCoy cells” value (uninfected McCoy cells)?
The value was > 250 µg/mL.

And the “reduction of relative infectious yield of bacteria” value (C. muridarum strain Nigg)?
The value was “at least 100 fold”.
